Source: patent US20230330060A1, “COMPOUNDS FOR TREATMENT OF HEART FAILURE” (Sulfateq B.V., priority 2020, published 2023)

Tests used:
[1] = test system: doxorubicin-induced heart failure; test: Cardiac radical scavenging activity (ABTS-radical decolorization); type: in vivo, rat; details: doxorubicin rats; prophylactic or therapeutic administration of SUL-150
Method: The SUL-150 solution was sprayed homogeneously over standard food pellets (1.25 kg). […] Food pellets were freshly prepared weekly. With the approximation of 200 mg·kg^−1 SUL-150 in the food pellets and a daily dietary intake of 25 gram for a 350 gram rat, daily dosing of SUL-150 approximates 5 mg·day^−1. Male outbred Wistar rats of 250-300 grams (10-12 weeks old) were kept on a 12 h light/dark cycle and received a standard diet with distilled water ad libitum. Thirty rats were administered with doxorubicin (2 mg·kg^−1) weekly via intraperitoneal injection for 9 consecutive weeks and were left either untreated (standard chow diet, 10 rats), or received a diet supplemented with SUL-150 as prophylaxis (prior to the 1st doxorubicin administration, 10 rats) or therapy (starting after the 6th doxorubicin administration, 10 rats). Sham control rats (8 rats) were administered with saline weekly via intraperitoneal injection for 9 consecutive weeks and received a standard diet. All rats were subjected to cardiac function assessment 12 weeks after the first doxorubicin administration. Cardiac tissue samples were homogenized in ddH2O using a TissueRuptor II (Qiagen, Hilden, Germany) followed by sonication at 20 kHz for 3×1 min (Sonopuls 2000, Bandelin, Berlin, Germany) and centrifugation at 14000 g to pellet insoluble proteins. […]

[2] = test system: mitochondrial complex IV (cytochrome c oxidase); test: Respiratory complex IV activity in mitochondria isolated from H9C2 cardiomyoblasts; type: cell-based, rat
Method: H9C2 cardiomyoblasts were exposed to 1 μM DOX in the presence or absence of 1 μM SUL-150 under standard cell culture conditions for 24 h. Mitochondria were isolated using density gradient centrifugation using the MitoCheck® Mitochondrial Isolation Kit (Cayman Chemical #701010, Ann Arbor, MI) according to manufacturer's instructions and assessed for the activity of mitochondrial complex IV (cytochrome c oxidase) by measuring the rate of oxidation of cytochrome c, which is reflected by an […] in absorbance at 550 nm (Cayman Chemical #700990, Ann Arbor, MI).

Cc1c(C)c2c(c(C)c1O)CC[C@](C)(C(=O)N1CCNCC1)O2 [SUL-150, (R)-(6-hydroxy-2,5,7,8-tetramethylchroman-2-yl)(piperazin-1-yl)methanone]
Cardiac radical scavenging activity, FIG. 5B [1]: remained unaltered | Respiratory complex IV activity, FIG. 7 ([2]; H9C2 cardiomyoblasts co-incubated with doxorubicin and SUL-150, both 1 μM for 24 h): maintains complex IV activity | Respiratory complex IV activity ([2]; untreated control H9C2 cardiomyoblasts, SUL-150 1 μM for 24 h): does not alter the activity of respiratory complex IV
